Where two headings read alike, the source gives them in different places.
How the values were obtained:
serotonin transporter = target: T1, serotonin transporter (Rattus norvegicus, UniProt P31652); experiment: biochemical; settings: Rat IC50 (nM) rSERT, rat synaptosomes, serotonin transporter (SERT)
T1 construct: synaptosomes isolated in a 0.32M sucrose buffer from a male Wistar rat cortex; from tissue; host or cells: male Wistar rat cortex synaptosomes

dopamine transporter = target: T2, dopamine transporter (Rattus norvegicus, UniProt P23977); experiment: biochemical; settings: Rat IC50 (nM) rDAT, rat synaptosomes, dopamine transporter (DAT)
T2 construct: synaptosomes isolated in a 0.32 M sucrose buffer from a male Wistar rat striatum; from tissue; host or cells: male Wistar rat striatum synaptosomes

[1] = target: T3, norepinephrine transporter (Rattus norvegicus, UniProt Q63380); experiment: biochemical; assay type: biochemical; settings: Rat IC50 (nM) rNET, rat synaptosomes, norepinephrine transporter (NET)
T3 construct: synaptosomes isolated in a 0.32 M sucrose buffer from a male Wistar rat hypothalamus; from tissue; host or cells: male Wistar rat hypothalamus synaptosomes

[2] = target: T4, 5-HT Transporter (SERT) Sites in Mouse Brain (Mus musculus, UniProt Q60857); experiment: Ex vivo [3H] citalopram binding after oral dosing; design: species or system C57BL/6 mice; settings: for % Transporter Occupancy, SERT: 60 minutes after treatment, vs vehicle; for Mean Specific Binding (dpm) ± S.E.M., SERT: mice sacrificed 60 minutes after treatment, cortex
T4 construct: Whole brains were removed and cortex and striata dissected out; from tissue; host or cells: C57BL/6 mouse frontal cortex homogenate

[3] = target: T5, DA Transporter (DAT) Sites in Mouse Brain (Mus musculus, UniProt Q61327); experiment: Ex vivo [3H] WIN 35428 binding after oral dosing; design: species or system C57BL/6 mice; settings: for % Transporter Occupancy, DAT: 60 minutes after treatment, vs vehicle; for Mean Specific Binding (dpm) ± S.E.M., DAT: mice sacrificed 60 minutes after treatment, striatum
T5 construct: Striatum was used to determine occupancy of DA transporter sites; from tissue; host or cells: C57BL/6 mouse striatum homogenate

Rats [4] = experiment: Rat forced swim test; assay type: in vivo; settings: PO, 24 hours and 30-60 minutes before the 5 minute test
mice [5] = experiment: Mouse tail suspension test; assay type: in vivo; settings: PO, 30-60 minutes before the test, 5 minutes recording
mice [6] = experiment: Mouse locomotor activity; assay type: in vivo; settings: PO; also: unit not given here
How it was run: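 Animals pretreated with vehicle or compound, then placed individually in photocell cages. Horizontal and vertical activity recorded in 5-min bins for up to 60 min. Analysed by one-way ANOVA with post-hoc tests.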

Rats [7] = experiment: Rat locomotor activity; assay type: in vivo; settings: PO
Description: In order to ensure effects of the compounds on immobility time were not related to a general stimulant effect on baseline motor activity, locomotor activity was assessed using photocell monitored cages (Med-Associates Inc.). Each test chamber was equipped with infrared photocell beams to measure movement of the animals. Horizontal and vertical activity were measured
Rats or mice were pretreated with vehicle or test compounds and placed back in home cage, following which they will be individually placed in locomotor cages and activity was monitored in 5 minute intervals for up to 60 min.
Data were analyzed by one way analysis of variance (ANOVA) followed by post-hoc comparisons where appropriate. An effect was considered significant if p < 0.05. Data are represented as the mean and standard error to the mean (s.e.m).

[8] = target: Norepinephrine Transporter (NET) Sites in Mouse Brain (Mus musculus, UniProt O55192); settings: PO; for % Transporter Occupancy, NET: 60 minutes after treatment, vs vehicle; for Mean Specific Binding (dpm) ± S.E.M., NET: mice sacrificed 60 minutes after treatment, cortex
[9] = literature; cited from earlier work
serotonin uptake sites = serotonin uptake sites (Homo sapiens, UniProt P31645); settings: compared with the racemic compound; U.S. Patent No. 6,372,919; cited from earlier work
Chain of serotonin uptake sites (P31645 whole entry): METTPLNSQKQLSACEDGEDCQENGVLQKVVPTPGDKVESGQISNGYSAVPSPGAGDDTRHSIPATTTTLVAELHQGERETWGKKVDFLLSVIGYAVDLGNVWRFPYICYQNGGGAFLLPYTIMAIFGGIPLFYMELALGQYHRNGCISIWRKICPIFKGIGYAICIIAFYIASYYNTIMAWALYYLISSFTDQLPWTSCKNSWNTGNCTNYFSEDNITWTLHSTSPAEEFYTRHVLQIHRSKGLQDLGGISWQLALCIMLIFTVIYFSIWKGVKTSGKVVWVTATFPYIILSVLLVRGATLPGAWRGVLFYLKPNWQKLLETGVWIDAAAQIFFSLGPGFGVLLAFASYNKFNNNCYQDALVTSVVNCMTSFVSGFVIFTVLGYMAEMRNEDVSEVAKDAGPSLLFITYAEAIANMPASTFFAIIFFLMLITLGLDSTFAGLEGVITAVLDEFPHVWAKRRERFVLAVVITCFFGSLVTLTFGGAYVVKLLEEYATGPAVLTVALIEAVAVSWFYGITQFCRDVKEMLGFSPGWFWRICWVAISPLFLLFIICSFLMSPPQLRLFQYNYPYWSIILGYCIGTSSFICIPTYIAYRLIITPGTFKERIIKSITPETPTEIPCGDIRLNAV

T5 sequence (Q61327 whole entry): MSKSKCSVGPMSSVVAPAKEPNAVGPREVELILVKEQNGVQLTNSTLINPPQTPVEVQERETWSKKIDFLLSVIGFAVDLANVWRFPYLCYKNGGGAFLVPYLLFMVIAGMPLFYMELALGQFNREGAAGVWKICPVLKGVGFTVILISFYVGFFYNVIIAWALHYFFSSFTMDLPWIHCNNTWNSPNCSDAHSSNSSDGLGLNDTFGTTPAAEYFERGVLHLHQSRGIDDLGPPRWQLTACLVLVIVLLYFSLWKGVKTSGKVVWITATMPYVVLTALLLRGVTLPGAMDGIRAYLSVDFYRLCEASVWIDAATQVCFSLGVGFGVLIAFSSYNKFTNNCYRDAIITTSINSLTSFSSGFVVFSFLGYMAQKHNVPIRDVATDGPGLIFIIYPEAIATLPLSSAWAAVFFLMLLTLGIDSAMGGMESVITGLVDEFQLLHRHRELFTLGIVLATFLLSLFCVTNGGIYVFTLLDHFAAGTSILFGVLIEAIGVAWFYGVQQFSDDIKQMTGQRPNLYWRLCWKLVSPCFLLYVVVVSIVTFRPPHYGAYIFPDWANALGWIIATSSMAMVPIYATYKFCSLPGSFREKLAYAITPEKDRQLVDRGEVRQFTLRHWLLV
Chain of Norepinephrine Transporter (NET) Sites in Mouse Brain (O55192 whole entry): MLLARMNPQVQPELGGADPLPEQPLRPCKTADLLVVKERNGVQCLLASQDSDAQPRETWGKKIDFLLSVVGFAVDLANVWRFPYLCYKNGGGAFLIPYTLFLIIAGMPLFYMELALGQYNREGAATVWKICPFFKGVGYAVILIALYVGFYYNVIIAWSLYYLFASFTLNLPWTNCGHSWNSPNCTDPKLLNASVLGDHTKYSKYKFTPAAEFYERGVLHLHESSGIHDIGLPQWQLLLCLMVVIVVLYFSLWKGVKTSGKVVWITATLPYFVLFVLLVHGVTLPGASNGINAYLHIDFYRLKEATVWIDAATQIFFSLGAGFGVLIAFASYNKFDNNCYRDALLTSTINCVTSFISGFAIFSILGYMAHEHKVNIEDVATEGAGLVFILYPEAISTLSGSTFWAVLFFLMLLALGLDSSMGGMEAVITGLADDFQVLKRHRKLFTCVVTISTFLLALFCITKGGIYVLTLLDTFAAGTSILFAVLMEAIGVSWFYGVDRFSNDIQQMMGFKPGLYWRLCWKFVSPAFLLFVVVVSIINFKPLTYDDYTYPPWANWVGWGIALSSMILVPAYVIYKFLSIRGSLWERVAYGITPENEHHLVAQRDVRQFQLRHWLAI
T4 sequence (Q60857 whole entry): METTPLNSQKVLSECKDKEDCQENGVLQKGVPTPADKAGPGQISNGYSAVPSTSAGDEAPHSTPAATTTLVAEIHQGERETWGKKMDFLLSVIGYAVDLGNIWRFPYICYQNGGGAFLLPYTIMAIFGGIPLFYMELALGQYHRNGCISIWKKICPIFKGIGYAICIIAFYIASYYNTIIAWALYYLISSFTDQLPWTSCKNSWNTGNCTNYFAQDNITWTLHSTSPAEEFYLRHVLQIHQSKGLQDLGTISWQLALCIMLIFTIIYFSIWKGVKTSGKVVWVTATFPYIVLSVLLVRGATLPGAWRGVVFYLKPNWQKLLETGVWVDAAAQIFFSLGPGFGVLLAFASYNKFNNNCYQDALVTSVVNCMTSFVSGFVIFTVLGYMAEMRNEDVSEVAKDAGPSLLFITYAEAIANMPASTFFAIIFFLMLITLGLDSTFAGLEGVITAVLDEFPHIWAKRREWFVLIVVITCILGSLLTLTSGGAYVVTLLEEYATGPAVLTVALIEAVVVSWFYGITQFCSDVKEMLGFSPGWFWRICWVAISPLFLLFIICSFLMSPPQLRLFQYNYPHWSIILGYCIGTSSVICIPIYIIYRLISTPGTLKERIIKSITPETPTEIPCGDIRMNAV
T3 sequence (Q63380 1-617): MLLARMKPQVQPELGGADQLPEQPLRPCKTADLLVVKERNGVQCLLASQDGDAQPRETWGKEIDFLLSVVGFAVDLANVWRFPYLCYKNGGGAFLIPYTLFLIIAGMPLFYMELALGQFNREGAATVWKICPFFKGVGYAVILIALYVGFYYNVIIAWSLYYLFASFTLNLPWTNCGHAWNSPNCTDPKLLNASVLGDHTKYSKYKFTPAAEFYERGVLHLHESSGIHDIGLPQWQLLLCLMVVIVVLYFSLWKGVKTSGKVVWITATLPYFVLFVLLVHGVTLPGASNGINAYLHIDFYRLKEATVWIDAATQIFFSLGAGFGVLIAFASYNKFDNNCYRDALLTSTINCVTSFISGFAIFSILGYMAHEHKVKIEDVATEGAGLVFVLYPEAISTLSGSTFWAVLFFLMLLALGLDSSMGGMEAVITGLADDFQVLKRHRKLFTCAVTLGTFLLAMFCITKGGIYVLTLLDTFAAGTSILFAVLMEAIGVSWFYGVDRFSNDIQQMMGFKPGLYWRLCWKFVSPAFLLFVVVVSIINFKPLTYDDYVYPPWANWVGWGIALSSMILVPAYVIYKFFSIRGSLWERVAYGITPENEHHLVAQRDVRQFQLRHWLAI
T2 sequence (P23977 whole entry): as the sequence (Q61327 whole entry) above, with P21S, V57A, S194A, R600H, V619L counted along it
T1 sequence (P31652 whole entry): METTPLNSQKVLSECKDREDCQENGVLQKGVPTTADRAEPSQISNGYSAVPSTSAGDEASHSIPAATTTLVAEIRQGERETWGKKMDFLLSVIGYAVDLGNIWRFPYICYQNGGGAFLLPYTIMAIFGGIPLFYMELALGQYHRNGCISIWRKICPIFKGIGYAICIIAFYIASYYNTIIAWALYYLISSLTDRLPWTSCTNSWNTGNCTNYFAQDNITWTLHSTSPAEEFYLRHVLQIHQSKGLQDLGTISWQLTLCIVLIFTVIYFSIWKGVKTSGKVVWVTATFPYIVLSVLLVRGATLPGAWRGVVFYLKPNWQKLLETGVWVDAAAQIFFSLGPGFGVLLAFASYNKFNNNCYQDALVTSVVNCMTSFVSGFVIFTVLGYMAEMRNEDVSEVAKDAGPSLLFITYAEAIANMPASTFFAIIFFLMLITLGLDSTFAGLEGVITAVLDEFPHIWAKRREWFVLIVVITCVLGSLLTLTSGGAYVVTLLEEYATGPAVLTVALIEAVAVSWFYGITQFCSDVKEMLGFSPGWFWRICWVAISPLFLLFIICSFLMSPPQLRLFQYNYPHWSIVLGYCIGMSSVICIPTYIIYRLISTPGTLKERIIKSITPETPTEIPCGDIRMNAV

Compound `CC(N(C)C)C1(c2ccc3ccccc3c2)CCCCC1` (single isomer, unassigned) [56 E1, N,N-dimethyl-1-(1-(naphthalen-2-yl)cyclohexyl)ethanamine] has an IC50 (serotonin transporter) of 2.9 nM, an IC50 (dopamine transporter) of 24 nM and an IC50 [1] of 2.3 nM. The “% Transporter Occupancy, SERT” value ([2]; 1 mg/kg) was 19%, the “Mean Specific Binding (dpm) ± S.E.M., SERT” value (“Mean Specific Binding … SERT” below) ([2]; 1 mg/kg) was 2625 ± 138 dpm and the “% Transporter Occupancy, SERT” value ([2]; 3 mg/kg) was 58%. The “Mean Specific Binding … SERT” value ([2]; 3 mg/kg) was 1346 ± 109 dpm, the “% Transporter Occupancy, SERT” value ([2]; 10 mg/kg) was 91% and the “Mean Specific Binding … SERT” value ([2]; 10 mg/kg) was 278 ± 42 dpm. For the same compound, the “% Transporter Occupancy, SERT” value ([2]; 30 mg/kg) was 95%, the “Mean Specific Binding … SERT” value ([2]; 30 mg/kg) was 151 ± 60 dpm and the “% Transporter Occupancy, DAT” value ([3]; 1 mg/kg) was 5%. For the same compound, the “Mean Specific Binding (dpm) ± S.E.M., DAT” value (“Mean Specific Binding … DAT” for short) ([3]; 1 mg/kg) was 41561 ± 1611 dpm, the “% Transporter Occupancy, DAT” value ([3]; 3 mg/kg) was 4% and the “Mean Specific Binding … DAT” value ([3]; 3 mg/kg) was 42127 ± 2130 dpm. For the same compound, the “% Transporter Occupancy, DAT” value ([3]; 10 mg/kg) was 23%, the “Mean Specific Binding … DAT” value ([3]; 10 mg/kg) was 33478 ± 1779 dpm and the “% Transporter Occupancy, DAT” value ([3]; 30 mg/kg) was 67%. The “Mean Specific Binding … DAT” value ([3]; 30 mg/kg) was 14637 ± 1567 dpm, the “Rat Forced Swim (Means ± S.E.M.) Climbing” value (Rats [4]; 3 mg/kg) was 7.1 ± 1.6 and the “Rat Forced Swim (Means ± S.E.M.) Immobility” value (Rats [4]; 3 mg/kg) was 52.2 ± 1.6. For the same compound, the “Rat Forced Swim (Means ± S.E.M.) Swimming” value (Rats [4]; 3 mg/kg) was 0.3 ± 0.2, the “Rat Forced Swim (Means ± S.E.M.) Climbing” value (Rats [4]; 10 mg/kg) was 8.6 ± 0.9 and the “Rat Forced Swim (Means ± S.E.M.) Immobility” value (Rats [4]; 10 mg/kg) was 50.7 ± 1.0. For the same compound, the “Rat Forced Swim (Means ± S.E.M.) Swimming” value (Rats [4]; 10 mg/kg) was 0.8 ± 0.3, the “Rat Forced Swim (Means ± S.E.M.) Climbing” value (Rats [4]; 30 mg/kg) was 17.9 ± 2.4 and the “Rat Forced Swim (Means ± S.E.M.) Immobility” value (Rats [4]; 30 mg/kg) was 40.4 ± 2.7. For the same compound, the “Rat Forced Swim (Means ± S.E.M.) Swimming” value (Rats [4]; 30 mg/kg) was 1.0 ± 0.4, the “Mouse Tail Suspension Mean Immobility Time ± S.E.M.” value (mice [5]; 3 mg/kg) was 184.0 ± 4.8 and the “Mouse Tail Suspension Mean Immobility Time ± S.E.M.” value (mice [5]; 10 mg/kg) was 174.8 ± 6.1. For the same compound, the “Mouse Tail Suspension Mean Immobility Time ± S.E.M.” value (mice [5]; 30 mg/kg) was 141.9 ± 7.4, the “Mouse Locomotor Activity Total Distance Traveled ± S.E.M.” value (mice [6]; 3 mg/kg) was 410.2 ± 89.3 and the “Mouse Locomotor Activity Total Distance Traveled ± S.E.M.” value (mice [6]; 10 mg/kg) was 440.2 ± 62.6. For the same compound, the “Mouse Locomotor Activity Total Distance Traveled ± S.E.M.” value (mice [6]; 30 mg/kg) was 252.2 ± 55.8, the “Rat Locomotor Activity Total Distance Traveled ± S.E.M.” value (Rats [7]; 3 mg/kg) was 1227.9 ± 84.4 and the “Rat Locomotor Activity Total Distance Traveled ± S.E.M.” value (Rats [7]; 10 mg/kg) was 1230.8 ± 64.8. The “Rat Locomotor Activity Total Distance Traveled ± S.E.M.” value (Rats [7]; 30 mg/kg) was 1359.8 ± 132.7, the “% Transporter Occupancy, NET” value ([8]; 1 mg/kg) was 20% and the “Mean Specific Binding (dpm) ± S.E.M., NET” value (“Mean Specific Binding … NET” for short) ([8]; 1 mg/kg) was 616 ± 50 dpm. For the same compound, the “% Transporter Occupancy, NET” value ([8]; 3 mg/kg) was 52%, the “Mean Specific Binding … NET” value ([8]; 3 mg/kg) was 368 ± 17 dpm and the “% Transporter Occupancy, NET” value ([8]; 10 mg/kg) was 86%. For the same compound, the “Mean Specific Binding … NET” value ([8]; 10 mg/kg) was 106 ± 20 dpm, the “% Transporter Occupancy, NET” value ([8]; 30 mg/kg) was 98% and the “Mean Specific Binding … NET” value ([8]; 30 mg/kg) was 19 ± 2 dpm.
In the case of `Clc1ccc(C23CNCC2C3)cc1Cl` (single isomer, unassigned; (+)) [DOV 21,947, (+)-1-(3,4-dichlorophenyl)-3-azabicyclo[3.1.0]hexane], the “immobility in the tail suspension test” value [9] is given as “dose-dependent reduction in immobility” and the “affinity for the serotonin uptake sites” value (serotonin uptake sites) is given as “significantly greater affinity”.
